Source: patent publication US20240239823A1, “PHOSPHINATE ESTER-CONTAINING DYES HAVING TUNABLE PROPERTIES AND METHODS OF MAKING THE SAME” (University of Virginia Patent Foundation, priority 2021, published 2024)

Key:
[1] = Aggregation in aqueous solution (absorbance versus concentration, SDS addition); assay type: physicochemical; settings: for effect of surfactant on absorbance: addition of 0.1% SDS, water; for aggregation / H-aggregate formation (blue-shifted absorbance band): aqueous solutions; for aggregation / H-aggregate formation (blue-shifted absorbance band) / linearity of absorbance versus concentration: increasing concentrations; for linearity of absorbance versus concentration: in water
Text: FIG. 2.2A: The structure of methylene blue (MB) and NR751.

[2] = Quenching of dye absorbance by glutathione (GSH); assay type: physicochemical; settings: absence versus presence of GSH
Text: The absorbance of NR708 in the absence or presence of GSH is shown.
In order to improve the chemical stability of NR dyes to nucleophiles found in biological systems, such as glutathione (GSH), bulky substituents were introduced to protect the C9 position of the dyes from nucleophilic attack. Accordingly, derivatives of NR700 and NR666, termed NR708 and NR675, respectively, were synthesized that bear bulky substituents on the pendant phenyl ring proximal to the C9 position of the dye (FIG. 3.1). […] The improved chemical stability of these dyes will provide brighter probes for imaging applications.

RAW 264.7 cells = experiment: Confocal imaging of RAW 264.7 cells with or without stimulation to produce endogenous HOCl; assay type: cell-based; settings: 50 μM; cells producing HOCl
Protocol: FIGS. 5.2A-5.2C show phosphinate-containing dyes as gated small molecule delivery vehicles for cytotoxic compounds in cells. FIG. 5.2A: The structure of NR—HOCl-1541B (left). Selective reaction with HOCl results in the gated release of 1541B, a cytotoxic compound, and a fluorescent NR dye (right) FIG. 5.2B: Viability of RAW 264.7 macrophages in the presence or absence of stimulation to produce endogenous HOCl (LPS and PMA), cells were incubated with 50 μM 1541B or NR—HOCl-1541B where indicated. FIG. 5.2C: Confocal imaging of RAW 264.7 cells incubated with 50 μM NR—HOCl-1541B in the presence or absence of stimulation to produce endogenous HOCl.

Row | Compound | effect of surfactant on absorbance [1] | aggregation / H-aggregate formation (blue-shifted absorbance band) [1] | linearity of absorbance versus concentration [1] | quenching / change of absorbance in the presence of glutathione (GSH) [2] | fluorescence and payload delivery in cells (RAW 264.7 cells)
1 | CN(C)c1ccc2nc3ccc(=[N+](C)C)cc-3sc2c1 [MB, methylene blue, reference compound] | reduces the intensity of the blue-shifted H-Aggregate absorption band | increase in H-aggregate formation | clear deviation from linearity |  | 
2 | COc1cccc(OC)c1C1=C2C=CC(=[N+](C)C)C=C2P(=O)(O)c2cc(N(C)C)ccc21 [NR675] |  |  |  | virtually no quenching | 
3 | CC1=CC(=[N+](C)C)C=C2C1=Nc1c(C)cc(N(C)C)cc1P2(=O)O [NR751] | No change is observed in the absorbance | significantly reduced aggregation | clear linear increase in absorbance versus concentration |  | 
4 | CN(C)c1ccc2c(c1)P(=O)(Oc1cccc3cc(C(=O)Nc4cccc(-c5cn6ccccc6n5)c4)c(=O)oc13)c1cc(N(C)C)ccc1C21SCc2ccccc21 (centres unmarked) [NR—HOCl-1541B] |  |  |  |  | Clear evidence of fluorescence, and payload delivery
